Test results reported in ChEMBL document CHEMBL1157388, “Recent developments in fragment-based drug discovery” (J Med Chem, 2008).
Blank lines part the entries; values can stand above or below the compound they belong to.

How the values were obtained:
Caspase-1 = biological target: T1, Caspase-1 (Homo sapiens, UniProt P29466); assay: Inhibition of caspase 1
T1 sequence (P29466 whole entry): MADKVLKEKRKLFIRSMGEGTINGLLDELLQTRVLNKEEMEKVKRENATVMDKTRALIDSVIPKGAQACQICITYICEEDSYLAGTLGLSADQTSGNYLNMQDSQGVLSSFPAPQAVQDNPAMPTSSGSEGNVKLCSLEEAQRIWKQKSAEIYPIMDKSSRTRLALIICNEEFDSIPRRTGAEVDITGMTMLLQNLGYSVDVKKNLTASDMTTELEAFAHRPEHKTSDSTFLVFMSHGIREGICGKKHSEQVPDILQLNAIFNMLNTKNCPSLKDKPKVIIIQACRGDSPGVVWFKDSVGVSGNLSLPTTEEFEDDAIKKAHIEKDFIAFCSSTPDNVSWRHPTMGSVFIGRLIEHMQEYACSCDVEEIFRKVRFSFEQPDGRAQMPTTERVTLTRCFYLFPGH

Aurora kinase A = biological target: T2, Aurora kinase A (Homo sapiens, UniProt O14965)
T2 sequence (O14965 whole entry): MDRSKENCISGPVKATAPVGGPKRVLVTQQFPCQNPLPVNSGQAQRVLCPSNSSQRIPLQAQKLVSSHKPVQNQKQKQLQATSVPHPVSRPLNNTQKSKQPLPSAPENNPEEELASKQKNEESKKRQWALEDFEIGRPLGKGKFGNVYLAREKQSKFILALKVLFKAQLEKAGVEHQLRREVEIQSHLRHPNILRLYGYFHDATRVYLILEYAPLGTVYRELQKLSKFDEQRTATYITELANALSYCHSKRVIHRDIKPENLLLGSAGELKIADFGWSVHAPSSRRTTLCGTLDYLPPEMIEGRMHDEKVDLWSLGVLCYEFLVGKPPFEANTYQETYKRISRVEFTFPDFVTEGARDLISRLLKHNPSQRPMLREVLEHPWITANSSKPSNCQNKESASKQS

Carbonic anhydrase 2 = Carbonic anhydrase 2 (Bos taurus, UniProt P00921)
[1] = biological target: RAC-alpha serine/threonine-protein kinase (Homo sapiens, UniProt P31749); assay: Inhibition of protein kinase B
[2] = biological target: Heat shock protein HSP 90-beta (Homo sapiens, UniProt P08238)
[3] = biological target: T3, Queuine tRNA-ribosyltransferase catalytic subunit 1 (Homo sapiens, UniProt Q9BXR0)
T3 sequence (Q9BXR0 whole entry): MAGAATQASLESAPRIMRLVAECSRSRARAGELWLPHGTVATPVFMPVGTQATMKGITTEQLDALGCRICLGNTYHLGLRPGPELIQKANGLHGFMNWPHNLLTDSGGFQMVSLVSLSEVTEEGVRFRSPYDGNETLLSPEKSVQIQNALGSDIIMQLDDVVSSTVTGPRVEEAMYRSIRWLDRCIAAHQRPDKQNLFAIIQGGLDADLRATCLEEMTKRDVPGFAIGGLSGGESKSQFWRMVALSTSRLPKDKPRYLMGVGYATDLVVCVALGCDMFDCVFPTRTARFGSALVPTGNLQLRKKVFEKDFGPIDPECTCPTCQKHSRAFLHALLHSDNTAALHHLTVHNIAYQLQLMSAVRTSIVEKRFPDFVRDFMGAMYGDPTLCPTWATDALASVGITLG

[4] = biological target: Urokinase-type plasminogen activator (Homo sapiens, UniProt P00749)
Prothrombin = Prothrombin (Homo sapiens, UniProt P00734); assay: Inhibition of thrombin
[5] = Inhibition of PDE4

Sequence of Carbonic anhydrase 2 (P00921 whole entry): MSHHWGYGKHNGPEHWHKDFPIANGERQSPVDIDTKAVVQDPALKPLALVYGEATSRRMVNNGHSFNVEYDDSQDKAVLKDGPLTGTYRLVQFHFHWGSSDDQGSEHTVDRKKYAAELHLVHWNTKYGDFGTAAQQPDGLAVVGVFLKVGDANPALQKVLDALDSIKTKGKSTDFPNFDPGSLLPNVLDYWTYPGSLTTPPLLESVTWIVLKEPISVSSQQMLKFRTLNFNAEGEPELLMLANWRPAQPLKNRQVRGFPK
Sequence of Heat shock protein HSP 90-beta (P08238 whole entry): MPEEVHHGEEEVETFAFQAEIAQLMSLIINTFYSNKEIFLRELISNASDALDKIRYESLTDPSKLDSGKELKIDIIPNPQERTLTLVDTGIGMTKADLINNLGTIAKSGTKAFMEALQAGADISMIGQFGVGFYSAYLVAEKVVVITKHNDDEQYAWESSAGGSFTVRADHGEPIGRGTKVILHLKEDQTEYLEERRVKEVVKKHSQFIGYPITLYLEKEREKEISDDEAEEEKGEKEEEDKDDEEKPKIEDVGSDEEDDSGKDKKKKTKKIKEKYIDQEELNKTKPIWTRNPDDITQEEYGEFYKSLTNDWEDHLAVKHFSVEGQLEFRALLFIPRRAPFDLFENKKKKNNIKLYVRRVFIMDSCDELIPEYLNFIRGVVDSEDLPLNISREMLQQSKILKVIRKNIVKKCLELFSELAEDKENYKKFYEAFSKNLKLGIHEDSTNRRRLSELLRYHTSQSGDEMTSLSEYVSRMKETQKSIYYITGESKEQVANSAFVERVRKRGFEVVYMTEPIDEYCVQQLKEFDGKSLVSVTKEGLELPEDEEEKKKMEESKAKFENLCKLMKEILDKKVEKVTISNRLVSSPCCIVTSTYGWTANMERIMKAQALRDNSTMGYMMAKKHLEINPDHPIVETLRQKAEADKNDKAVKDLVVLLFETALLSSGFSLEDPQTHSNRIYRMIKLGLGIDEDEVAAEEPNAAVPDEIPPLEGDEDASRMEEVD
Sequence of RAC-alpha serine/threonine-protein kinase (P31749 whole entry): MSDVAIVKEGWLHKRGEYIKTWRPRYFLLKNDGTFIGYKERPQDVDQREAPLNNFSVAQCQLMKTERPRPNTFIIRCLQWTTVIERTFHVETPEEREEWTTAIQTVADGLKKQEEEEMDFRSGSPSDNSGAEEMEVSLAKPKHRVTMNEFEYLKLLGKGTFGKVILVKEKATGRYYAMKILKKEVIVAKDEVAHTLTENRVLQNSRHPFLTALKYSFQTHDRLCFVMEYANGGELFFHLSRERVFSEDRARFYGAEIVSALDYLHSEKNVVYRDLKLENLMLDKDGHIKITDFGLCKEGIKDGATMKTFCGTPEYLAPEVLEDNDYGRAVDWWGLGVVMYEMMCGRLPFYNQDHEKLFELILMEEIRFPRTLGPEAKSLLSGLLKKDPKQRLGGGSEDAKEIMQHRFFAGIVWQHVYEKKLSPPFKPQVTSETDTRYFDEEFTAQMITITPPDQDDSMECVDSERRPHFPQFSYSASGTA

IC50 (Caspase-1): 190 nM
SMILES: O=C[C@H](CC(=O)O)NC(=O)CCCCCNC(=O)c1ccc(Nc2cnc3ccccc3n2)cc1

IC50 (Aurora kinase A): 94 nM
SMILES: COc1cc2[nH]c3ncnc(N4CCN(C(=S)Nc5ccc(S(=O)(=O)Nc6ncccn6)cc5)CC4)c3c2cc1OC

IC50 (Aurora kinase A): 3000 nM
SMILES: COc1cc2[nH]c3ncnc(Cl)c3c2cc1OC

SMILES: CC(C)[C@@H](C(=O)N1CC2CCC(CC2)C1)n1cc(-c2ccc(S(N)(=O)=O)cc2)nn1
Kd (Carbonic anhydrase 2): 0.2 nM

IC50 (Aurora kinase A): 21000 nM
SMILES: Nc1ccc(S(=O)(=O)Nc2ncccn2)cc1 [SULFADIAZINE]

IC50 [1]: 135000 nM
SMILES: c1ccc(-c2cn[nH]c2)cc1

Kd [2]: 150000 nM
SMILES: O=C1OCC/C1=C\Nc1ccccc1

Ki [3]: 2100 nM
SMILES: Nc1nc2ccccc2c(=O)[nH]1

IC50 (Caspase-1): 5 nM
SMILES: O=C[C@H](CC(=O)O)NC(=O)c1ccc(CNC(=O)c2ccc(Nc3cnc4ccccc4n3)cc2)nc1

IC50 [4]: 200000 nM
SMILES: Nc1nc2cc(O)ccc2[nH]1

Kd (Carbonic anhydrase 2): 37 nM
SMILES: C#Cc1ccc(S(N)(=O)=O)cc1

IC50 (Prothrombin): 4 nM
SMILES: COc1ccc(S(=O)(=O)NC[C@@H](O)[C@H](Cc2ccccc2)NCc2cc(Cl)ccc2-n2cnnn2)cc1

IC50 [5]: 19 nM
SMILES: CCOC(=O)c1c(C)nn(-c2ccccc2Cl)c1C

Ki [3]: 3700 nM
SMILES: COc1ccc(CCc2c3nc[nH]c3cc3c(=O)[nH]c(N)nc23)cc1

Kd [2]: 4000 nM
SMILES: Cc1cc(C#Cc2ccccc2/C=N/N2CCOC2=O)nc(N)n1
